Reference: patent US7923465B2, “Cannabinoid receptor ligands, pharmaceutical compositions containing them, and process for their preparation” (priority 2005, dated 2011)
Structures can show the parent of a compound that is named as a salt. Where two headings read alike, the source gives them in different places.

Assays:
[1] = biological target: CB1 (Rattus norvegicus, UniProt P20272); experiment: Rat CB1 receptor binding using brain membrane, [3H]SR141716A displacement (Protocol I); set-up: CB1 receptor present in a rat brain membrane preparation; from tissue; host or cells: rat brain membrane; inhibition: dose or concentration left out as unconfirmed; settings: for inhibition: 1 h
Experimental: I. In Vitro Protocol for Rat CB1 Receptor Binding Using Brain Membrane
In this assay, [^3H]SR141716A (5-(4-chlorophenyl)-1-(2,4-dichlorophenyl)-4-methyl-N-(1-piperidyl)pyrazole-3-carboxamide) was used to bind the CB1 receptor present in a rat brain membrane preparation which can be displaced by unlabeled ligands having affinity to the CB1 receptor.
The assay was performed according to the modified method of Thomas et al., 1998 (JPET 285: 285-292). The total reaction mixture ([…]) contained Tris-BSA buffer (50 mM Tris, pH 7.4 with 1.5% BSA) or unlabeled SR141716A […] or test samples […], [^3H] SR141716A (2 nM) and […] of rat brain membrane. The non-specific binding was defined by […] of SR141716A. The assay mixture was incubated at 37° C. for 1 hour. The reaction was then stopped by rapid filtration under vacuum using Whatman GF/B-96 micro filter plate. A scintillation cocktail was added and radioactive counts were measured using a Topcount beta scintillation counter.
The standard and test sample dilutions were made in an assay buffer containing either ethanol or DMSO at a final concentration of 1%.
(§1) The percent (%) displacement by a test ligand was calculated by comparing the specific bound values.

[2] = biological target: hCB2 (Homo sapiens, UniProt P34972); experiment: In vitro binding assay using hCB2-CHO membranes, [3H]-CP-55,940 displacement (Protocol IV); set-up: expressed in transfected cells; host or cells: CHO (hCB2-CHO, generated in-house); settings: for inhibition at 0.3 µM: 1 h, read-out: % Displacement Protocol IV
Experimental: IV. Protocol for In Vitro Assay Using hCB2-CHO Membranes:
In this assay, [^3H]-CP-55,940 was used as the radioligand to bind human CB2 receptor expressed on the membranes from CHO cells (hCB2-CHO cell line was generated in-house) which can be displaced by unlabeled ligands having affinity to the CB2 receptor.
The assay was performed according to the modified method of Ross et al., 1999 (Br. J. Pharmacol. 128, 735-743). The reaction was set up in a total volume of 200 μl in PEI (0.2%) precoated Millipore GFB filter plates. 1 mM stocks of test compounds were prepared in DMSO and tested at a final concentration of 300 nM. The non-specific binding was determined by 0.5 μM CP-55, 940. The total reaction mixture contained Tris-BSA buffer (50 mM Tris, 5 mM MgCl2, 1 mM EDTA, pH 7.4 with 0.1% BSA), unlabelled CP-55, 940 (0.5 μM) or test samples, [^3H]-CP-55, 940 (0.75 nM) and 25-50 μg of human CB2 receptor preparation. The assay mixture (with or without the test compound) was incubated at 30° C. for 1 hour. The reaction was stopped by rapid filtration under vacuum and the radioactivity on the filters was measured by liquid scintillation counting.
as §1

[3] = read-out: % Displacement Protocol I, rat brain membrane, [3H]SR141716A displacement
[4] = rat brain membrane, [3H]SR141716A displacement
[5] = hCB2-CHO membranes, [3H]-CP-55,940 displacement
[6] = rat brain membrane, [3H]SR141716A displacement, read-out: % Displacement Protocol I

Chain of CB1 (P20272 whole entry): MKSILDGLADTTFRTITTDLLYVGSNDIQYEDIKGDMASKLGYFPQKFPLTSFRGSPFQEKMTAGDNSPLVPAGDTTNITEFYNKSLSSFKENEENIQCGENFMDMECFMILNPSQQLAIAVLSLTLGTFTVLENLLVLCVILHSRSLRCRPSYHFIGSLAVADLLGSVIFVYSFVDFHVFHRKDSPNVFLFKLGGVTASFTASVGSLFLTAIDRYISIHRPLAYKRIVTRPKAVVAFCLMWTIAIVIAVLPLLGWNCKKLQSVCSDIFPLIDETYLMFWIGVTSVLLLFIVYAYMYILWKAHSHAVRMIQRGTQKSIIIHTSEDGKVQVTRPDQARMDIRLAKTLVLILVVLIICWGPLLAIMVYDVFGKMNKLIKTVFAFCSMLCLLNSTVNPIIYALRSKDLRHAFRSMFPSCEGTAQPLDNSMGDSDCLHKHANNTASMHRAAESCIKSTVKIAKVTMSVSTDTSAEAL
Chain of hCB2 (P34972 whole entry): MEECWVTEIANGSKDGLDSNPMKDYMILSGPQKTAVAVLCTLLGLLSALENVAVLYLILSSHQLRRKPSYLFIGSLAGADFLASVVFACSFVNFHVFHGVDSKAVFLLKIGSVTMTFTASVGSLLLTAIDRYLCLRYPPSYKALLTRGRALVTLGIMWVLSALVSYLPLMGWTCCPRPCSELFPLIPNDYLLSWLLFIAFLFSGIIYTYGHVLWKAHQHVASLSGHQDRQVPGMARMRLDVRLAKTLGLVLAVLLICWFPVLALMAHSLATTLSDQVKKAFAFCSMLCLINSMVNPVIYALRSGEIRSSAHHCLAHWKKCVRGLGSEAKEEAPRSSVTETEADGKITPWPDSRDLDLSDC

SMILES	melting point	inhibition at 0.3 µM [2]	further results
O=C(NCc1ccc(C(F)(F)F)cc1)c1nn(-c2ccc(Cl)cc2)c2c1C1CC3CC(C1)CC2C3 [Example 116, N(7)-(4-Trifluoromethylbenzyl)-5-(4-chlorophenyl)-5,6-diazatetracyclo[7.3.1.1^3,11.0^4,8]tetradeca-4(8),6-diene-7-carboxamide]	–	–	inhibition [1, 3]: 24.9%
O=C(NNc1ccccc1Cl)c1nn(-c2ccc(Cl)cc2)c2c1C1CC3CC(C1)CC2C3 [Example 124, N(7)-(2-Chlorophenylamino)-5-(4-chlorophenyl)-5,6-diazatetracyclo[7.3.1.1^3,11.0^4,8]tetradeca-4(8),6-diene-7-carboxamide hydrochloride]	–	–	inhibition [1, 3]: 80.1%
O=C(c1nn(-c2ccc(Cl)cc2)c2c1C1CC3CC(C1)CC2C3)N1CCCCC1 [Example 141, 7-(4′-Chlorophenyl)-6,7-diazatetracyclo[7.3.1.1^3,11.0^4,8]tetradeca-4(8)-5-dien-5-yl-piperidinomethanone]	–	–	% Displacement Protocol I [1, 4]: 17%
O=C(Nc1ccccc1)c1nn(-c2ccc(Cl)cc2)c2c1C1CC3CC(C1)CC2C3 [Example 142, N(7)-Phenyl-5-(4′-chlorophenyl)-5,6-diazatetracyclo[7.3.1.1^3,11.0^4,8]tetradeca-4(8)-6-diene-7-carboxamide]	–	–	% Displacement Protocol IV [2, 5]: 9.86%; % Displacement Protocol I [1, 4]: 25%
O=C(NCc1ccccc1)c1nn(-c2ccccc2Cl)c2c1C1CCC2C1 (stereo not shown) [Example 207, N(3)-Benzyl-1-(2-chlorophenyl)-4,5,6,7-tetrahydro-1H-4,7-methano-indazole-3-carboxamide]	–	–	inhibition [1, 6]: -1.2%
O=C(Nc1cccc(Br)c1)c1n[nH]c2c1C1(c3ccc(Cl)cc3)CCC2C1 (stereo not shown) [Example 217, N(3)-(3-Bromophenyl)-4-(4-chlorophenyl)-4,5,6,7-tetrahydro-1H-4,7-methano-indazole-3-carboxamide]	–	–	inhibition at 0.3 µM [2, 5]: 10.7%; inhibition [1, 6]: 20.5%
O=C(NCCc1ccccc1)c1nn(-c2ccc(Cl)cc2Cl)c2c1C1CCC2C1 (stereo not shown) [Example 254, N(3)-(2-phenylethyl)-1-(2,4-dichlorophenyl)-4,5,6,7-tetrahydro-1H-4,7-methano-indazole-3-carboxamide]	–	–	inhibition [1, 6]: 9.1%
O=C(NCCc1ccc(F)cc1)c1nn(-c2ccc(Cl)cc2Cl)c2c1C1CCC2C1 (stereo not shown) [Example 255, N(3)-[2-(4-fluorophenyl)ethyl]-1-(2,4-dichlorophenyl)-4,5,6,7-tetrahydro-1H-4,7-methano-indazole-3-carboxamide]	–	–	inhibition [1, 6]: 23.9%
CC[C@H](NC(=O)c1nn(-c2ccc(F)cc2F)c2c1C1CCC2C1)c1ccccc1 (stereo partly drawn) [Example 300, N5-[(1S)-1-Phenylpropyl]-3-(2,4-difluorophenyl)-3,4-diazatricyclo[5.2.1.0^2,6]deca-2(6),4-diene-5-carboxamide]	100 to 103 °C	90.1%	–
O=C(NC1(c2ccccc2)CC1)c1nn(-c2ccc(F)cc2F)c2c1C1CCC2C1 (stereo not shown) [Example 308, N5-(1-phenylcyclopropyl)-3-(2,4-difluorophenyl)-3,4-diazatricyclo[5.2.1.0^2,6]deca-2(6),4-diene-5-carboxamide]	90 °C	86.6%	–
O=C(NC1C2CC3CC(C2)CC1C3)c1nn(-c2ccc(F)cc2F)c2c1C1CCC2C1 (stereo not shown) [Example 309, N5-(2-Adamantyl)-3-(2,4-difluorophenyl)-3,4-diazatricyclo[5.2.1.0^2,6]deca-2(6),4-diene-5-carboxamide]	159 to 161 °C	98.5%	–
CC1(NC(=O)c2nn(-c3ccc(F)cc3F)c3c2C2CCC3C2)C2CC3CC(C2)CC1C3 (stereo not shown) [Example 310, N5-(2-Methyl-2-adamantyl)-3-(2,4-difluorophenyl)-3,4-diazatricyclo[5.2.1.0^2,6]deca-2(6),4-diene-5-carboxamide]	60 °C	94.2%	–
CCC(C)(C)NC(=O)c1nn(-c2ccc(F)cc2F)c2c1C1CCC2C1 (stereo not shown) [Example 313, N(3)-(tert-Pentyl)-1-(2,4-difluorophenyl)-4,5,6,7-tetrahydro-1H-4,7-methano-indazole-3-carboxamide]	78 to 80 °C	98.2%	–
O=C(NC1CC1)c1nn(-c2ccc(F)cc2F)c2c1C1CCC2C1 (stereo not shown) [Example 317, N(3)-Cyclopropyl-1-(2,4-difluorophenyl)-4,5,6,7-tetrahydro-1H-4,7-methano-indazole-3-carboxamide]	59 to 61 °C	16.9%	–
O=C(NCC1CCCO1)c1nn(-c2ccc(F)cc2F)c2c1C1CCC2C1 (stereo not shown) [Example 322, N(3)-(Tetrahydro-2-furanylmethyl)-1-(2,4-difluorophenyl)-4,5,6,7-tetrahydro-1H-4,7-methano-indazole-3-carboxamide]	91 to 93 °C	43.4%	–
CC12CCC(c3c(C(=O)NNc4ccccc4F)nn(-c4ccc(Cl)cc4Cl)c31)C2(C)C (stereo not shown) [Example 402, N(3)-[(2-Fluorophenyl)amino]-1-(2,4-Dichlorophenyl)-7,8,8-trimethyl-4,5,6,7-tetrahydro-1H-4,7-methano-indazole-3-carboxamide]	72 to 80 °C	–	inhibition at 0.3 µM [2, 5]: 2.66%
CC12CCC(c3c(C(=O)NNc4ncccc4Cl)nn(-c4ccc(Cl)cc4Cl)c31)C2(C)C (stereo not shown) [Example 404, N(3)-[(3-chloropyridin-2-yl)amino]-1-(2,4-Dichlorophenyl)-7,8,8-trimethyl-4,5,6,7-tetrahydro-1H-4,7-methano-indazole-3-carboxamide]	142 to 145 °C	–	inhibition at 0.3 µM [2, 5]: 23.8%
CC12CCC(c3c(C(=O)NC45CC6CC(CC(C6)C4)C5)nn(-c4ccc(F)cc4F)c31)C2(C)C (stereo not shown) [Example 405, N(3)-(Adamantan-1-yl)-1-(2,4-difluorophenyl)-7,8,8-trimethyl-4,5,6,7-tetrahydro-1H-4,7-methano-indazole-3-carboxamide]	162 to 165 °C	87.9%	–
CC12CCC(C1)C(C)(C)C2NC(=O)c1nn(-c2ccc(F)cc2F)c2c1C1CCC2(C)C1(C)C (stereo not shown) [Example 406, N(3)-(1,3,3-Trimethylbicyclo[2.2.1]hept-2-yl)-1-(2,4-difluorophenyl)-7,8,8-trimethyl-4,5,6,7-tetrahydro-1H-4,7-methano-indazole-3-carboxamide]	171 to 173 °C	94.3%	–
COC(=O)[C@H](NC(=O)c1nn(-c2ccc(F)cc2F)c2c1C1CCC2(C)C1(C)C)c1ccccc1 (stereo partly drawn) [Example 409, Methyl (2R)-2-[1-(2,4-difluorophenyl)-7,8,8-trimethyl-4,5,6,7-tetrahydro-1H-4,7-methano-indazole-3-carboxamido]-2-phenylethanoate]	107 to 109 °C	–	inhibition at 0.3 µM [2, 5]: 65.3%
CC(C)(NC(=O)c1nn(-c2ccc(F)cc2F)c2c1C1CCC2c2ccccc21)c1ccccc1 (stereo not shown) [Example 509, N12-(1-Methyl-1-phenylethyl)-10-(2,4-difluorophenyl)-10,11-diazatetracyclo[6.5.2.0^2,7.0^9,13]pentadeca-2,4,6,9(13),11-pentaene-12-carboxamide]	175 to 178 °C	67.2%	–
O=C(NN1CCCCC1)c1nn(-c2ccc(Cl)cc2Cl)c2c1C1c3ccccc3C2C2C(=O)N(c3ccc(Cl)cc3)C(=O)C12 (stereo not shown) [Example 602, N(12)-Piperidino-16-(4-chlorophenyl)-10-(2,4-dichlorophenyl)-15,17-dioxo-10,11,16-triazapentacyclo[6.5.2.0^2,7.0^9,13.0^14,18]octadeca-2,4,6,9(13),11-pentaene-12-carboxamide]	–	–	% Displacement Protocol IV [2, 5]: 16.4%; % Displacement Protocol I [1, 4]: 4.1%
CCC(C)(C)NC(=O)c1nn(-c2ccc(F)cc2F)c2c1C1CCC2CC1 [Example 802, N(5)-(tert-Pentyl)-3-(2,4-difluorophenyl)-3,4-diazatricyclo[5.2.2.0^2,6]undeca-2(6),4-diene-5-carboxamide]	102 to 105 °C	100%	–
